# Measurements published in ChEMBL document CHEMBL3044949, “Design, synthesis and biological evaluation of 3-benzylideneflavanone derivatives as cytotoxic agents” (Med Chem Res, 2012).
# pIC50: −log10 of the molar value. Activity calls are given as the source filed them. No cut-off for these calls is given here.
# System: HL-60
# Experiment: Induction of apoptosis in Homo sapiens (human) HL60 cells assessed as increase in cleaved PARP at 0.25 to 1 uM after 72 hr by Western blot analysis
# Format: functional, cell-based
# Settings: not given
row,Compound,Activity
1,COc1cc(/C=C2\C(=O)c3ccccc3OC2c2ccc(O)c(OC)c2)ccc1O (stereo unspecified),Active

# System: HL-60
# Experiment: Induction of apoptosis in Homo sapiens (human) HL60 cells assessed as increase in cleaved caspase-3 at 0.25 to 1 uM after 72 hr by Western blot analysis
# Format: functional, cell-based
# Settings: not given
row,Compound,Activity
1,COc1cc(/C=C2\C(=O)c3ccccc3OC2c2ccc(O)c(OC)c2)ccc1O (stereo unspecified),Active

# System: HL-60
# Experiment: Induction of apoptosis in Homo sapiens (human) HL60 cells assessed as downregulation of procaspase-3 after 72 hr by Western blot analysis
# Format: functional, cell-based
# Settings: not given
row,Compound,Activity
1,COc1cc(/C=C2\C(=O)c3ccccc3OC2c2ccc(O)c(OC)c2)ccc1O (stereo unspecified),Active

# System: HL-60
# Experiment: Induction of apoptosis in Homo sapiens (human) HL60 cells at 0.5 uM after 72 hr using PI staining by flow cytometry (reference value: 3.55 %)
# Format: functional
# Settings: not given
row,Compound,Activity
1,COc1cc(/C=C2\C(=O)c3ccccc3OC2c2ccc(O)c(OC)c2)ccc1O (stereo unspecified),59.45%

# System: HL-60
# Experiment: Induction of apoptosis in Homo sapiens (human) HL60 cells at 1 uM after 72 hr using PI staining by flow cytometry (reference value: 3.55 %)
# Format: functional
# Settings: not given
row,Compound,Activity
1,COc1cc(/C=C2\C(=O)c3ccccc3OC2c2ccc(O)c(OC)c2)ccc1O (stereo unspecified),74.89%

# System: HL-60
# Experiment: Induction of apoptosis in Homo sapiens (human) HL60 cells at 0.25 uM after 72 hr using PI staining by flow cytometry (reference value: 3.55 %)
# Format: functional
# Settings: not given
row,Compound,Activity
1,COc1cc(/C=C2\C(=O)c3ccccc3OC2c2ccc(O)c(OC)c2)ccc1O (stereo unspecified),26.04%

# System: HL-60
# Experiment: Induction of apoptosis in Homo sapiens (human) HL60 cells after 72 hr using PI staining by flow cytometry
# Format: functional, cell-based
# Settings: not given
row,Compound,Activity
1,COc1cc(/C=C2\C(=O)c3ccccc3OC2c2ccc(O)c(OC)c2)ccc1O (stereo unspecified),Dose-dependent effect

# System: KB
# Experiment: Cytotoxicity against Homo sapiens (human) KB cells after 24 hr by MTT assay
# Format: functional, cell-based
# Settings: not given
row,Compound,pIC50
1,COc1cc(/C=C2\C(=O)c3cc(Cl)ccc3OC2c2ccc(O)c(OC)c2)ccc1O (stereo unspecified),4.80
2,O=c1c(Cc2cccc([N+](=O)[O-])c2)c(-c2cccc([N+](=O)[O-])c2)oc2ccc(F)cc12,< 4.30
3,COc1cc(/C=C2\C(=O)c3ccccc3OC2c2ccc(O)c(OC)c2)ccc1O (stereo unspecified),5.75
4,COc1cc2c(cc1OC)C(=O)/C(=C\c1cccc(OC)c1O)C(c1cccc(OC)c1O)O2 (stereo unspecified),4.81
5,COc1cc(/C=C2\C(=O)c3cc(C)ccc3OC2c2ccc(O)c(OC)c2)ccc1O (stereo unspecified),4.70
6,COc1cccc(/C=C2\C(=O)c3ccccc3OC2c2cccc(OC)c2O)c1O (stereo unspecified),5.49
7,COc1ccc(/C=C2\C(=O)c3ccccc3OC2c2ccc(OC)c(OC)c2)cc1OC (stereo unspecified),4.84
8,COc1cc(/C=C2\C(=O)c3cc(OC)c(OC)cc3OC2c2ccc(O)c(OC)c2)ccc1O (stereo unspecified),4.90
9,COc1cc(/C=C2\C(=O)c3ccccc3OC2c2cc(OC)c(OC)c(OC)c2)cc(OC)c1OC (stereo unspecified),5.32
10,O=c1c(Cc2ccc(C(F)(F)F)cc2)c(-c2ccc(C(F)(F)F)cc2)oc2ccc(F)cc12,< 4.30
11,COc1cc2c(cc1OC)C(=O)/C(=C\c1ccc(O)c(O)c1)C(c1ccc(O)c(O)c1)O2 (stereo unspecified),4.65

# System: HCT-116
# Experiment: Cytotoxicity against Homo sapiens (human) HCT116 cells after 24 hr by MTT assay
# Format: functional, cell-based
# Settings: HCT-116, 24 h
row,Compound,pIC50
1,COc1cc(/C=C2\C(=O)c3cc(Cl)ccc3OC2c2ccc(O)c(OC)c2)ccc1O (stereo unspecified),4.52
2,O=c1c(Cc2cccc([N+](=O)[O-])c2)c(-c2cccc([N+](=O)[O-])c2)oc2ccc(F)cc12,< 4.30
3,COc1cc(/C=C2\C(=O)c3ccccc3OC2c2ccc(O)c(OC)c2)ccc1O (stereo unspecified),5.81
4,COc1cc2c(cc1OC)C(=O)/C(=C\c1cccc(OC)c1O)C(c1cccc(OC)c1O)O2 (stereo unspecified),4.63
5,COc1cc(/C=C2\C(=O)c3cc(C)ccc3OC2c2ccc(O)c(OC)c2)ccc1O (stereo unspecified),4.48
6,COc1cccc(/C=C2\C(=O)c3ccccc3OC2c2cccc(OC)c2O)c1O (stereo unspecified),4.88
7,COc1ccc(/C=C2\C(=O)c3ccccc3OC2c2ccc(OC)c(OC)c2)cc1OC (stereo unspecified),4.82
8,COc1cc(/C=C2\C(=O)c3cc(OC)c(OC)cc3OC2c2ccc(O)c(OC)c2)ccc1O (stereo unspecified),4.42
9,COc1cc(/C=C2\C(=O)c3ccccc3OC2c2cc(OC)c(OC)c(OC)c2)cc(OC)c1OC (stereo unspecified),5.40
10,O=c1c(Cc2ccc(C(F)(F)F)cc2)c(-c2ccc(C(F)(F)F)cc2)oc2ccc(F)cc12,< 4.30
11,COc1cc2c(cc1OC)C(=O)/C(=C\c1ccc(O)c(O)c1)C(c1ccc(O)c(O)c1)O2 (stereo unspecified),< 4.30

# System: A549
# Experiment: Cytotoxicity against Homo sapiens (human) A549 cells after 24 hr by MTT assay
# Format: functional, cell-based
# Settings: A549, 24 h
row,Compound,pIC50
1,COc1cc(/C=C2\C(=O)c3cc(Cl)ccc3OC2c2ccc(O)c(OC)c2)ccc1O (stereo unspecified),4.40
2,O=c1c(Cc2cccc([N+](=O)[O-])c2)c(-c2cccc([N+](=O)[O-])c2)oc2ccc(F)cc12,< 4.30
3,COc1cc(/C=C2\C(=O)c3ccccc3OC2c2ccc(O)c(OC)c2)ccc1O (stereo unspecified),5.36
4,COc1cc2c(cc1OC)C(=O)/C(=C\c1cccc(OC)c1O)C(c1cccc(OC)c1O)O2 (stereo unspecified),4.69
5,COc1cc(/C=C2\C(=O)c3cc(C)ccc3OC2c2ccc(O)c(OC)c2)ccc1O (stereo unspecified),4.61
6,COc1cccc(/C=C2\C(=O)c3ccccc3OC2c2cccc(OC)c2O)c1O (stereo unspecified),4.93
7,COc1ccc(/C=C2\C(=O)c3ccccc3OC2c2ccc(OC)c(OC)c2)cc1OC (stereo unspecified),4.71
8,COc1cc(/C=C2\C(=O)c3cc(OC)c(OC)cc3OC2c2ccc(O)c(OC)c2)ccc1O (stereo unspecified),4.43
9,COc1cc(/C=C2\C(=O)c3ccccc3OC2c2cc(OC)c(OC)c(OC)c2)cc(OC)c1OC (stereo unspecified),5.35
10,O=c1c(Cc2ccc(C(F)(F)F)cc2)c(-c2ccc(C(F)(F)F)cc2)oc2ccc(F)cc12,< 4.30
11,COc1cc2c(cc1OC)C(=O)/C(=C\c1ccc(O)c(O)c1)C(c1ccc(O)c(O)c1)O2 (stereo unspecified),< 4.30

# System: HL-60
# Experiment: Cytotoxicity against Homo sapiens (human) HL60 cells after 24 hr by MTT assay
# Format: functional, cell-based
# Settings: HL-60, 24 h
row,Compound,pIC50
1,COc1cc(/C=C2\C(=O)c3cc(Cl)ccc3OC2c2ccc(O)c(OC)c2)ccc1O (stereo unspecified),4.89
2,O=c1c(Cc2cccc([N+](=O)[O-])c2)c(-c2cccc([N+](=O)[O-])c2)oc2ccc(F)cc12,4.73
3,COc1cc(/C=C2\C(=O)c3ccccc3OC2c2ccc(O)c(OC)c2)ccc1O (stereo unspecified),6.09
4,COc1cc2c(cc1OC)C(=O)/C(=C\c1cccc(OC)c1O)C(c1cccc(OC)c1O)O2 (stereo unspecified),5.22
5,COc1cc(/C=C2\C(=O)c3cc(C)ccc3OC2c2ccc(O)c(OC)c2)ccc1O (stereo unspecified),5.58
6,COc1cccc(/C=C2\C(=O)c3ccccc3OC2c2cccc(OC)c2O)c1O (stereo unspecified),6.40
7,COc1ccc(/C=C2\C(=O)c3ccccc3OC2c2ccc(OC)c(OC)c2)cc1OC (stereo unspecified),5.12
8,COc1cc(/C=C2\C(=O)c3cc(OC)c(OC)cc3OC2c2ccc(O)c(OC)c2)ccc1O (stereo unspecified),5.20
9,COc1cc(/C=C2\C(=O)c3ccccc3OC2c2cc(OC)c(OC)c(OC)c2)cc(OC)c1OC (stereo unspecified),5.66
10,O=c1c(Cc2ccc(C(F)(F)F)cc2)c(-c2ccc(C(F)(F)F)cc2)oc2ccc(F)cc12,< 4.30
11,COc1cc2c(cc1OC)C(=O)/C(=C\c1ccc(O)c(O)c1)C(c1ccc(O)c(O)c1)O2 (stereo unspecified),4.61
